tested on: mice; experiment: Neuropharmacological assay (SmartCube), behavioral signature of compound-treated mice; type: in vivo; details: i.p. 15 min before behavioral test, most efficacious dose(s) of 3 doses
Procedure, shortened: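 Mice received compound i.p. in NMP/PEG/propylene glycol vehicle at 3 doses, 15 min before testing. Video-captured behavior was algorithmically compared with a reference-drug signature database.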

SMILES	AD: ADHD (probability that behavioral signature matches class)	AG: analgesic (probability that behavioral signature matches class)	AX: anxiolytic (probability that behavioral signature matches class)	CE: cognitive enhancer (probability that behavioral signature matches class)	DP: anti-depressant (probability that behavioral signature matches class)	HA: hallucinogen (probability that behavioral signature matches class)	MS: mood stabilizer (probability that behavioral signature matches class)	PS: anti-psychotic (probability that behavioral signature matches class)	SD: sedative hypnotic (probability that behavioral signature matches class)	UN: uncharacterized CNS activity (probability that behavioral signature matches class)
Fc1ccc2c(c1)CCCO[C@@H]2[C@H]1CCCN1 [Compound I-112, (R)-2-((S)-7-fluoro-1,3,4,5-tetrahydrobenzo[c]oxepin-1-yl)pyrrolidine]	+ (LOQ ≤ + <5%)	+ (LOQ ≤ + <5%)	++ (5% ≤ ++ <25%)	++ (5% ≤ ++ <25%)	++ (5% ≤ ++ <25%)	+ (LOQ ≤ + <5%)	+ (LOQ ≤ + <5%)	+++ (25% ≤ +++ <50%)	+ (LOQ ≤ + <5%)	+ (LOQ ≤ + <5%)
CC1(C)Cc2ccccc2[C@@H]([C@H]2CCCN2)O1 [Compound I-67, (R)-2-((S)-3,3-dimethylisochroman-1-yl)pyrrolidine]	+ (LOQ ≤ + <5%)	+ (LOQ ≤ + <5%)	+ (LOQ ≤ + <5%)	+ (LOQ ≤ + <5%)	+ (LOQ ≤ + <5%)	+ (LOQ ≤ + <5%)	+ (LOQ ≤ + <5%)	+ (LOQ ≤ + <5%)	+ (LOQ ≤ + <5%)	+ (LOQ ≤ + <5%)
c1cc(-c2ccc3c(c2)CCO[C@@H]3[C@@H]2CCCN2)on1 [Compound I-55, 5-((S)-1-((S)-pyrrolidin-2-yl)isochroman-6-yl)isoxazole]	+ (LOQ ≤ + <5%)	+ (LOQ ≤ + <5%)	+ (LOQ ≤ + <5%)	+ (LOQ ≤ + <5%)	+ (LOQ ≤ + <5%)	+ (LOQ ≤ + <5%)	+ (LOQ ≤ + <5%)	+ (LOQ ≤ + <5%)	+ (LOQ ≤ + <5%)	+ (LOQ ≤ + <5%)
CC1(C)CN[C@H]([C@H]2OCCc3ccccc32)C1 [Compound I-60, (S)-2-((S)-isochroman-1-yl)-4,4-dimethylpyrrolidine]	+ (LOQ ≤ + <5%)	++ (5% ≤ ++ <25%)	++ (5% ≤ ++ <25%)	++ (5% ≤ ++ <25%)	++ (5% ≤ ++ <25%)	+ (LOQ ≤ + <5%)	+ (LOQ ≤ + <5%)	+++ (25% ≤ +++ <50%)	++ (5% ≤ ++ <25%)	++ (5% ≤ ++ <25%)
Fc1ccc2c(c1)[C@@H]([C@H]1CCN1)OCC2 [Compound I-88, (R)-2-((S)-7-fluoroisochroman-1-yl)azetidine]	+ (LOQ ≤ + <5%)	++ (5% ≤ ++ <25%)	+++ (25% ≤ +++ <50%)	++ (5% ≤ ++ <25%)	++ (5% ≤ ++ <25%)	+ (LOQ ≤ + <5%)	+ (LOQ ≤ + <5%)	++ (5% ≤ ++ <25%)	+ (LOQ ≤ + <5%)	+++ (25% ≤ +++ <50%)
Fc1cccc2c1CCO[C@@H]2[C@@H]1CCCN1 [Compound I-14, (S)-2-((S)-5-fluoroisochroman-1-yl)pyrrolidine]	+ (LOQ ≤ + <5%)	++ (5% ≤ ++ <25%)	++ (5% ≤ ++ <25%)	++ (5% ≤ ++ <25%)	+++ (25% ≤ +++ <50%)	+ (LOQ ≤ + <5%)	++ (5% ≤ ++ <25%)	+++ (25% ≤ +++ <50%)	+ (LOQ ≤ + <5%)	+ (LOQ ≤ + <5%)
N#Cc1ccc2c(c1)CCO[C@H]2[C@H]1CCCN1 [Compound I-45, (R)-1-((R)-pyrrolidin-2-yl)isochroman-6-carbonitrile]	+ (LOQ ≤ + <5%)	++ (5% ≤ ++ <25%)	+++ (25% ≤ +++ <50%)	+ (LOQ ≤ + <5%)	++ (5% ≤ ++ <25%)	+ (LOQ ≤ + <5%)	+ (LOQ ≤ + <5%)	+ (LOQ ≤ + <5%)	+ (LOQ ≤ + <5%)	+ (LOQ ≤ + <5%)
Fc1ccc2c(c1)[C@H]([C@H]1CCCN1)OCC2 [Compound I-7, (R)-2-((R)-7-fluoroisochroman-1-yl)pyrrolidine]	+ (LOQ ≤ + <5%)	++ (5% ≤ ++ <25%)	++ (5% ≤ ++ <25%)	++ (5% ≤ ++ <25%)	++ (5% ≤ ++ <25%)	+ (LOQ ≤ + <5%)	+ (LOQ ≤ + <5%)	++ (5% ≤ ++ <25%)	+ (LOQ ≤ + <5%)	+++ (25% ≤ +++ <50%)

same assay, conditions: i.p. 15 min before behavioral test, most efficacious dose(s) of 3 doses

SMILES	XG: anxiogenic (probability that behavioral signature matches class)
Fc1ccc2c(c1)CCCO[C@@H]2[C@H]1CCCN1 [Compound I-112, (R)-2-((S)-7-fluoro-1,3,4,5-tetrahydrobenzo[c]oxepin-1-yl)pyrrolidine]	+ (LOQ ≤ + <5%)
CC1(C)Cc2ccccc2[C@@H]([C@H]2CCCN2)O1 [Compound I-67, (R)-2-((S)-3,3-dimethylisochroman-1-yl)pyrrolidine]	+ (LOQ ≤ + <5%)
c1cc(-c2ccc3c(c2)CCO[C@@H]3[C@@H]2CCCN2)on1 [Compound I-55, 5-((S)-1-((S)-pyrrolidin-2-yl)isochroman-6-yl)isoxazole]	+ (LOQ ≤ + <5%)
CC1(C)CN[C@H]([C@H]2OCCc3ccccc32)C1 [Compound I-60, (S)-2-((S)-isochroman-1-yl)-4,4-dimethylpyrrolidine]	+ (LOQ ≤ + <5%)
Fc1ccc2c(c1)[C@@H]([C@H]1CCN1)OCC2 [Compound I-88, (R)-2-((S)-7-fluoroisochroman-1-yl)azetidine]	+ (LOQ ≤ + <5%)
Fc1cccc2c1CCO[C@@H]2[C@@H]1CCCN1 [Compound I-14, (S)-2-((S)-5-fluoroisochroman-1-yl)pyrrolidine]	+ (LOQ ≤ + <5%)
N#Cc1ccc2c(c1)CCO[C@H]2[C@H]1CCCN1 [Compound I-45, (R)-1-((R)-pyrrolidin-2-yl)isochroman-6-carbonitrile]	+ (LOQ ≤ + <5%)
Fc1ccc2c(c1)[C@H]([C@H]1CCCN1)OCC2 [Compound I-7, (R)-2-((R)-7-fluoroisochroman-1-yl)pyrrolidine]	+ (LOQ ≤ + <5%)

Reference: patent US10336732B2, “1-heterocyclyl isochromanyl compounds and analogs for treating CNS disorders” (Sunovion Pharmaceuticals Inc., priority 2015, dated 2019)
